The test has as its target PD-1/PD-L1 interaction (PD-1-Ig / PD-L1-His) (Homo sapiens (Human), UniProt Q9NZQ7). Put plainly: PD-1/PD-L1 Homogenous Time-Resolved Fluorescence (HTRF) binding assay. The following applies: PD-1/PD-L1 HTRF binding assay, read-out: Range or IC50. Summed up: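 Human PD-L1-His (10 nM final) was pre-incubated with inhibitor for 15 min, then PD-1-Ig (20 nM final) was added for a further 15 min in dPBS with 0.1% BSA and 0.05% Tween-20. Binding was detected by HTRF using Eu-cryptate anti-Ig (1 nM) and APC anti-His (20 nM).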
(In general: Time-resolved FRET reads energy transfer from a long-lived donor to a nearby acceptor.)

Where a name gives a salt, the structure may show the parent alone. Read-outs that look alike come from different tables or passages of the source.

Sequence of PD-1/PD-L1 interaction (PD-1-Ig / PD-L1-His) (Q9NZQ7 other isoform, or with tags, fused parts or gaps): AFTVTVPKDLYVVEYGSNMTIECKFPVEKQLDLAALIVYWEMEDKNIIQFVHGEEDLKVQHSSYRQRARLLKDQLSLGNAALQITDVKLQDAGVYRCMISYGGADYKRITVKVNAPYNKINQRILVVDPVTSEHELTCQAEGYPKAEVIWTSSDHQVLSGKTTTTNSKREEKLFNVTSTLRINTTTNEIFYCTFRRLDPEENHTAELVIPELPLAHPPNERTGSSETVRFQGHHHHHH

As for `Cc1c(COc2cc(OCc3cccc(C#N)c3)c(CNCc3nnn[nH]3)cc2Cl)cccc1-c1ccc2c(c1)OCCO2` [Example 1229, 3-((2-((((1H-tetrazol-5-yl)methyl)amino)methyl)-4-chloro-5-((3-(2,3-dihydrobenzo[b][1,4]dioxin-6-yl)-2-methylbenzyl)oxy)phenoxy)methyl)benzonitrile], the IC50 (value given as range class) lay within 0.6 to 10 nM. Still for that read-out and setting: the same measure for `Cc1c(COc2cc(OCc3cccc(C#N)c3)c(CN3CCCC[C@H]3C(=O)O)cc2Cl)cccc1-c1ccc2c(c1)OCCO2` [Example 1230, (S)-1-(5-chloro-2-((3-cyanobenzyl)oxy)-4-((3-(2,3-dihydrobenzo[b][1,4]dioxin-6-yl)-2-methylbenzyl)oxy)benzyl)piperidine-2-carboxylic acid]: 0.6 to 10 nM; for `Cc1c(COc2ccc(CN[C@H](CO)C(=O)O)c(OCc3cccc(C#N)c3)c2Cl)cccc1-c1ccccc1` [Example 1231, (R)-2-((3-chloro-2-((3-cyanobenzyl)oxy)-4-((2-methyl-[1,1′-biphenyl]-3-yl)methoxy)benzyl)amino)-3-hydroxypropanoic acid]: 100 to 20000 nM. Same read-out and setting: under `Cc1c(COc2ccc(CNC[C@@H](O)CC(=O)O)c(OCc3cccc(C#N)c3)c2Cl)cccc1-c1ccccc1` [Example 1232, (S)-4-((3-chloro-2-((3-cyanobenzyl)oxy)-4-((2-methyl-[1,1′-biphenyl]-3-yl)methoxy)benzyl)amino)-3-hydroxybutanoic acid] stands 100 to 20000 nM; under `Cc1c(COc2ccc(CN3CCCC[C@H]3C(=O)O)c(OCc3cccc(C#N)c3)c2Cl)cccc1-c1ccccc1` [Example 1233, (S)-1-(3-chloro-2-(3-cyanobenzyloxy)-4-((2-methylbiphenyl-3-yl)methoxy)benzyl)piperidine-2-carboxylic acid], 100 to 20000 nM.

As for `CC(=O)NCCNCc1ccc(OCc2cccc(-c3ccccc3)c2C)c(Cl)c1OCc1cccc(C#N)c1` [Example 1234, N-(2-(3-chloro-2-(3-cyanobenzyloxy)-4-((2-methylbiphenyl-3-yl)methoxy)benzylamino)ethyl)acetamide], the IC50 (value given as range class) lay in the range of 100 to 20000 nM. Same read-out and setting: under `Cc1c(COc2ccc(CN[C@H](CO)C(=O)O)c(OCc3cccc(C#N)c3)c2Cl)cccc1-c1ccc2c(c1)OCCO2` [Example 1235, (R)-2-((3-chloro-2-((3-cyanobenzyl)oxy)-4-((3-(2,3-dihydrobenzo[b][1,4]dioxin-6-yl)-2-methylbenzyl)oxy)benzyl)amino)-3-hydroxypropanoic acid] stands 100 to 20000 nM. Turning to `Cc1c(COc2ccc(CN3CCCC[C@H]3C(=O)O)c(OCc3cccc(C#N)c3)c2Cl)cccc1-c1ccc2c(c1)OCCO2` [Example 1236, (S)-1-(3-chloro-2-(3-cyanobenzyloxy)-4-(3-(2,3-dihydrobenzo[b][1,4]dioxin-6-yl)-2-methylbenzyloxy)benzyl)piperidine-2-carboxylic acid], the IC50 (value given as range class) lay within 100 to 20000 nM. As for `CC(=O)NCCNCc1ccc(OCc2cccc(-c3ccc4c(c3)OCCO4)c2C)c(Cl)c1OCc1cccc(C#N)c1` [Example 1237, N-(2-((3-chloro-2-((3-cyanobenzyl)oxy)-4-((3-(2,3-dihydrobenzo[b][1,4]dioxin-6-yl)-2-methylbenzyl)oxy)benzyl)amino)ethyl)acetamide], the IC50 (value given as range class) lay within 100 to 20000 nM.

`Cc1c(COc2ccc(CN[C@@](C)(CO)C(=O)O)c(OCc3cccc(C#N)c3)c2Cl)cccc1-c1ccc2c(c1)OCCO2` [Example 1238, (S)-2-((3-chloro-2-((3-cyanobenzyl)oxy)-4-((3-(2,3-dihydrobenzo[b][1,4]dioxin-6-yl)-2-methylbenzyl)oxy)benzyl)amino)-3-hydroxy-2-methylpropanoic acid]: under “value given as range class”, the IC50 was 100 to 20000 nM.

With `Cc1c(COc2ccc(CN[C@](C)(CO)C(=O)O)c(OCc3cccc(C#N)c3)c2Cl)cccc1-c1ccc2c(c1)OCCO2` [Example 1239, (R)-2-((3-chloro-2-((3-cyanobenzyl)oxy)-4-((3-(2,3-dihydrobenzo[b][1,4]dioxin-6-yl)-2-methylbenzyl)oxy)benzyl)amino)-3-hydroxy-2-methylpropanoic acid], for the setting “numeric value”, the IC50 turned out to be 149 nM.

For `Cc1c(COc2ccc(CNC[C@@H](O)CC(=O)O)c(OCc3cccc(C#N)c3)c2Cl)cccc1-c1ccc2c(c1)OCCO2` [Example 1240, (S)-4-((3-chloro-2-((3-cyanobenzyl)oxy)-4-((3-(2,3-dihydrobenzo[b][1,4]dioxin-6-yl)-2-methylbenzyl)oxy)benzyl)amino)-3-hydroxybutanoic acid], the IC50 (value given as range class) was 100 to 20000 nM. The same measure, in the same setting: the same measure for `C[C@](CO)(NCc1cc(Cl)c(OCc2cccc(-c3ccc4c(c3)OCCO4)c2C#N)cc1OCc1cccc(C#N)c1)C(=O)O` [Example 1241, (R)-2-((5-chloro-4-((2-cyano-3-(2,3-dihydrobenzo[b][1,4]dioxin-6-yl)benzyl)oxy)-2-((3-cyanobenzyl)oxy)benzyl)amino)-3-hydroxy-2-methylpropanoic acid]: 0.6 to 10 nM; for `N#Cc1cccc(COc2cc(OCc3cccc(-c4ccc5c(c4)OCCO5)c3C#N)c(Cl)cc2CN[C@H](CO)C(=O)O)c1` [Example 1242, (R)-2-((5-chloro-4-((2-cyano-3-(2,3-dihydrobenzo[b][1,4]dioxin-6-yl)benzyl)oxy)-2-((3-cyanobenzyl)oxy)benzyl)amino)-3-hydroxypropanoic acid]: 0.6 to 10 nM; for `Cc1c(COc2cc(OCc3cccc(C#N)c3)c(CNC3(C(=O)O)COC3)cc2Cl)cccc1-c1ccc2c(c1)OCCO2` [Example 1243, 3-((5-chloro-2-((3-cyanobenzyl)oxy)-4-((3-(2,3-dihydrobenzo[b][1,4]dioxin-6-yl)-2-methylbenzyl)oxy)benzyl)amino)oxetane-3-carboxylic acid]: 10 to 100 nM.

Turning to `Cc1c(COc2cc(OCc3cccc(C#N)c3)c(CN[C@@](C)(CO)C(=O)O)cc2Cl)cccc1-c1ccc2c(c1)OCCO2` [Example 1245, (S)-2-((5-chloro-2-((3-cyanobenzyl)oxy)-4-((3-(2,3-dihydrobenzo[b][1,4]dioxin-6-yl)-2-methylbenzyl)oxy)benzyl)amino)-3-hydroxy-2-methylpropanoic acid], the IC50 (value given as range class) was 0.6 to 10 nM. For `Cc1c(COc2cc(OCc3cccc(C#N)c3)c(CNC[C@@H](O)CC(=O)O)cc2Cl)cccc1-c1ccc2c(c1)OCCO2` [Example 1246, (S)-4-((5-chloro-2-((3-cyanobenzyl)oxy)-4-((3-(2,3-dihydrobenzo[b][1,4]dioxin-6-yl)-2-methylbenzyl)oxy)benzyl)amino)-3-hydroxybutanoic acid], the IC50 (value given as range class) was in the range of 0.6 to 10 nM. Same read-out and setting: under `CC(=O)NCCNCc1cc(Cl)c(OCc2cccc(-c3ccc4c(c3)OCCO4)c2C)cc1OCc1cccc(C#N)c1` [Example 1247, N-(2-((5-chloro-2-((3-cyanobenzyl)oxy)-4-((3-(2,3-dihydrobenzo[b][1,4]dioxin-6-yl)-2-methylbenzyl)oxy)benzyl)amino)ethyl)acetamide] stands 0.6 to 10 nM. The same measure, in the same setting: the same measure for `Cc1c(COc2cc(OCc3cncc(C#N)c3)c(CN[C@](C)(CO)C(=O)O)cc2Cl)cccc1-c1ccc2c(c1)OCCO2` [Example 1248, (R)-2-((5-chloro-2-((5-cyanopyridin-3-yl)methoxy)-4-((3-(2,3-dihydrobenzo[b][1,4]dioxin-6-yl)-2-methylbenzyl)oxy)benzyl)amino)-3-hydroxy-2-methylpropanoic acid]: 0.6 to 10 nM; for `Cc1c(COc2cc(OCc3cncc(C#N)c3)c(CN[C@H](CO)C(=O)O)cc2Cl)cccc1-c1ccc2c(c1)OCCO2` [Example 1249, (R)-2-((5-chloro-2-((5-cyanopyridin-3-yl)methoxy)-4-((3-(2,3-dihydrobenzo[b][1,4]dioxin-6-yl)-2-methylbenzyl)oxy)benzyl)amino)-3-hydroxypropanoic acid]: 0.6 to 10 nM. For `Cc1c(COc2cc(OCc3cncc(C#N)c3)c(CNC[C@@H](O)CC(=O)O)cc2Cl)cccc1-c1ccc2c(c1)OCCO2` [Example 1250, (S)-4-((5-chloro-2-((5-cyanopyridin-3-yl)methoxy)-4-((3-(2,3-dihydrobenzo[b][1,4]dioxin-6-yl)-2-methylbenzyl)oxy)benzyl)amino)-3-hydroxybutanoic acid], the IC50 (numeric value) stood at 1.19 nM. `CC(=O)NCCNCc1cc(Cl)c(OCc2cccc(-c3ccc4c(c3)OCCO4)c2C)cc1OCc1cncc(C#N)c1` [Example 1251, N-(2-((5-chloro-2-((5-cyanopyridin-3-yl)methoxy)-4-((3-(2,3-dihydrobenzo[b][1,4]dioxin-6-yl)-2-methylbenzyl)oxy)benzyl)amino)ethyl)acetamide]: the IC50 (value given as range class) lay in the range of 0.6 to 10 nM. Same read-out and setting: under `Cc1c(COc2cc(OCc3cncc(C#N)c3)c(CN[C@@](C)(CO)C(=O)O)cc2Cl)cccc1-c1ccc2c(c1)OCCO2` [Example 1252, (S)-2-(5-chloro-2-((5-cyanopyridin-3-yl)methoxy)-4-(3-(2,3-dihydrobenzo[b][1,4]dioxin-6-yl)-2-methylbenzyloxy)benzylamino)-3-hydroxy-2-methylpropanoic acid] stands 0.6 to 10 nM. Same read-out and setting: under `Cc1c(COc2cc(OCc3cncc(C#N)c3)c(CN3CCCC[C@H]3C(=O)O)cc2Cl)cccc1-c1ccc2c(c1)OCCO2` [Example 1253, (S)-1-(5-chloro-2-((5-cyanopyridin-3-yl)methoxy)-4-((3-(2,3-dihydrobenzo[b][1,4]dioxin-6-yl)-2-methylbenzyl)oxy)benzyl)piperidine-2-carboxylic acid, TFA salt] stands 0.6 to 10 nM; under `Cc1c(COc2cc(OCc3cncc(Br)c3)c(CN[C@](C)(CO)C(=O)O)cc2Cl)cccc1-c1ccc2c(c1)OCCO2` [Example 1254, (R)-2-(2-((5-bromopyridin-3-yl)methoxy)-5-chloro-4-(3-(2,3-dihydrobenzo[b][1,4]dioxin-6-yl)-2-methylbenzyloxy)benzylamino)-3-hydroxy-2-methylpropanoic acid], 0.6 to 10 nM.

Broadly, the IC50 is the concentration that gives 50% inhibition.

The values are drawn from patent publication US9850225B2, “Compounds useful as immunomodulators” (BRISTOL-MYERS SQUIBB COMPANY, priority 2014, dated 2017).
